Data set [1] deals with T1, human DNA polymerase λ (Homo sapiens, UniProt Q9UGP5).
T1 construct: Recombinant full-length human DNA polymerase λ and β were generated and purified as described; made in house
T1 sequence (Q9UGP5 1-575): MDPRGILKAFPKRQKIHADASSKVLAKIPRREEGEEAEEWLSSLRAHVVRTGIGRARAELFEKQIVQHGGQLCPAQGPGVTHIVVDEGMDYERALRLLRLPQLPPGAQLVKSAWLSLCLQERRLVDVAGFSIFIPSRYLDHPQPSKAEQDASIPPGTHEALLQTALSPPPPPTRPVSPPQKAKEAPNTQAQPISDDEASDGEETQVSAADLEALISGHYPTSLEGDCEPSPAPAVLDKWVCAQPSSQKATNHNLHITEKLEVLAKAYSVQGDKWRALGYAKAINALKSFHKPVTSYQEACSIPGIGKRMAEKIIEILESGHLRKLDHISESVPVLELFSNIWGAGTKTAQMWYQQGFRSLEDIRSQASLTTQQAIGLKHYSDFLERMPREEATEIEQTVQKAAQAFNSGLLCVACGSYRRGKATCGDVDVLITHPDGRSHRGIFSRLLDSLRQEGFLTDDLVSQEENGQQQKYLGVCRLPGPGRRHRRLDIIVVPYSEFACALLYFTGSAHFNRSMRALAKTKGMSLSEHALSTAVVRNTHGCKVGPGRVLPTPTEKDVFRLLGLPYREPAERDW
Kind of data set: Terminal transferase assay, DNA polymerase λ (TdT-like activity). Type of data set: biochemical. Conditions: for IC50: enzymatic assay, TdT-like activity of pol λ, read-out: ID50 pol λ (TdT). How it is done:
(§1) Recombinant full-length human DNA polymerase λ and β were generated and purified as described. After purification, the protein was >90% homogeneous, as judged by sodium dodecyl sulphate (SDS)−polyacrylamide gel electrophoresis (PAGE) and Coomassie staining. TdT was from Trevigen (Gaithersburg, MD).
(§2) Terminal Transferase Assay. DNA polymerase λ and TdT terminal transferase activities were assayed in a final volume of 25 μL containing 50 mM Tris-HCl (pH 7.0), 0.25 mg/mL BSA, 1 mM DTT, 0.2 μM ss 30mer (AAC)10 DNA oligonucleotide, 25 μM [3H]dNTPs (10 Ci/mmol) and 0.5 mM MnCl2 or 5 mM MgCl2 used as cofactors. Terminal transferase activity was monitored in the presence of 10% DMSO or in the presence of increasing amounts of inhibitors dissolved in DMSO. All reactions were incubated for 10 min at 37 °C and the DNA precipitated with 10% trichloroacetic acid. Insoluble radioactive material was determined by scintillation counting using Trilux beta-counter (PerkinElmer) as described.
(§3) Dose − response curves were generated by computer fitting of the data to the equation E(%) = Emax/(1 + I/ID50) where E(%) is the fraction of enzyme’s activity measured in the presence of the inhibitor, Emax is the activity in the absence of the inhibitor, I is the inhibitor concentration, and ID50 is the inhibitor concentration at which E(%) = 0.5 Emax. ID50 values were generated using GraphPad Prism 6.

Data set [2] concerns the target T2, human TdT (Homo sapiens, UniProt P04053).
T2 construct: purchased Trevigen (Gaithersburg, MD)
In words: Terminal transferase assay, TdT. Type of data set: biochemical. Conditions: human TdT. How it is done: as §1, §2, §3

In data set [3] the target is T3, human DNA polymerase β (Homo sapiens, UniProt P06746).
T3 construct: Recombinant full-length human DNA polymerase λ and β were generated and purified as described; made in house
Kind of data set: Polymerase assay, DNA polymerase β. Conditions: for pol β Residual activity (%) Mg2+ / pol β Residual activity (%) Mn2+: after treatment 100 mM; for IC50: enzymatic assay, read-out: ID50 pol β; for residual polymerase activities: fix concentration of 100 µM, pol β. Type of data set: biochemical. How it is done: as §1
(§4) Polymerase Assay: Activity of DNA polymerase λ and β were assessed using poly(dA)/oligo(dT)10:1 substrate in a final volume of 25 μL containing 50 mM Tris-HCl (pH 7.0), 0.25 mg/mL BSA, 1 mM, DTT, 0.2 μM poly(dA)/oligo(dT)10:1 (3′-OH ends), 50 nM DNA polymerase λ or β, 5 μM [3H]-2′-deoxythymidine 5′-triphosphate (dTTP) (5 Ci/mmol), and 0.5 mM MnCl2 or 5 mM MgCl2 used as cofactors. The polymerase activity was monitored in the presence of 10% DMSO or in the presence of increasing amounts of inhibitors dissolved in DMSO. All reactions were incubated for 15 min at 37 °C and the DNA precipitated with 10% trichloroacetic acid. Insoluble radioactive material was determined by scintillation counting using Trilux beta-counter (PerkinElmer) as described.
as §3

Data set [4] deals with T1, human DNA polymerase λ. Kind of data set: Polymerase assay, DNA polymerase λ (template-dependent). The format is biochemical. Conditions: for pol λ (Pol) Residual activity (%) Mg2+ / pol λ (Pol) Residual activity (%) Mn2+: after treatment 100 mM; for IC50: enzymatic assay, template-dependent polymerase activity, read-out: ID50 pol λ (Pol); for residual polymerase activities: fix concentration of 100 µM, pol λ. How it is done:
as §1, §4, §3

In data set [5] the test system is leukaemia cells overexpressing TdT. The arrangement: method as in PMID 22390204. Conditions: read-out: cytotoxicity activity IC50; cited from earlier work.
For data set [6], the target named is T3, human DNA polymerase β. The arrangement: method as in PMID 19329428. Conditions: enzymatic assay; cited from earlier work.
The target of data set [7] is T1, human DNA polymerase λ. The arrangement: method as in PMID 19329428. Conditions: enzymatic assay; cited from earlier work.
The target in data set [8] is T1, human DNA polymerase λ. The arrangement: method as in PMID 19329428. Conditions: enzymatic assay; cited from earlier work. The source holds these as a separate data set.
Setting [9] is: Mn2+ as cofactor, read-out: ID50 (µM) Mn2+.
Setting [10] is: Mg2+ as cofactor, read-out: ID50 (µM) Mg2+.

Where two headings read alike, the source gives them in different places.

T2 sequence (P04053 whole entry): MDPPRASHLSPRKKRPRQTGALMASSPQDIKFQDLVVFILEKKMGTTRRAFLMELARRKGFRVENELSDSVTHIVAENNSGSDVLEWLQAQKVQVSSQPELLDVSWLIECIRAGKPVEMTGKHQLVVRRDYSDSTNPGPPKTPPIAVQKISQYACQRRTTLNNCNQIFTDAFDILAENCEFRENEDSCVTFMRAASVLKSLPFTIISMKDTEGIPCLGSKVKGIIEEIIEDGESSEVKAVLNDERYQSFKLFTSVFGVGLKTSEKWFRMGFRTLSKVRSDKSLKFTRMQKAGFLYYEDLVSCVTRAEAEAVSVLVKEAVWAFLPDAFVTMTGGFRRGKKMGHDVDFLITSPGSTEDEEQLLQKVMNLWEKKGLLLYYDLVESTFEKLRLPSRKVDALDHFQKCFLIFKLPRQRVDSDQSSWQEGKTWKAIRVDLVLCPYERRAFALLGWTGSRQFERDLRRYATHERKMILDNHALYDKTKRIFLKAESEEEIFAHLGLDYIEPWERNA

For “4-(1-(4-fluorobenzyl)-4-phenyl-1H-pyrrol-3-yl)-2,4-dioxobutanoic acid [Compound 12b]”, the “pol λ (TdT) Residual activity (%) Mn2+” value in data set [1] (after treatment 100 mM, Mn2+) came to 100%. Also, the “ID50 (µM) Mn2+” value in data set [2] (Mn2+ as cofactor) is reported as 10.10 ± 4.1 µM. For the same compound, in data set [2] (setting [9]), the IC50 was determined as 10.10 µM. In data set [3], the “pol β Residual activity (%) Mg2+” value amounted to 51.7% and the “pol β Residual activity (%) Mn2+” value stood at 82.5%. In addition, in data set [4], the “pol λ (Pol) Residual activity (%) Mg2+” value worked out at 74.0% and the “pol λ (Pol) Residual activity (%) Mn2+” value is 79.0%.
Regarding `C#Cc1cn([C@H]2C[C@H](O)[C@@H](COP(=O)(O)OP(=O)(O)OP(=O)(O)O)O2)c2ccc([N+](=O)[O-])cc12` [3-eth-5-NITP, 3-ethynyl-5-nitroindolyl-2′-deoxynucleoside triphosphate], the IC50 in data set [5] is 3.9 µM.
Turning to `O=C(/C=C(\O)C(=O)O)/C=C/c1cc(C(=O)c2ccccc2)cn1Cc1ccccc1` [Compound 1], the “ID50 pol β” value in data set [6] is listed as greater than 40 µM. Moreover, in data set [2] (setting [9]), the IC50 amounted to 16 ± 0.5 µM. For the same compound, in data set [7], the “ID50 pol λ (TdT)” value is on record as 20 ± 1 µM. For the same compound, the “ID50 pol λ (Pol)” value in data set [8] is greater than 40 µM.
Consider `O=C(/C=C(\O)C(=O)O)/C=C/c1cc(C(=O)c2ccccc2)cn1Cc1ccc(F)cc1` [Compound 2], for which, in data set [6], the “ID50 pol β” value is greater than 40 µM. For the same compound, the IC50 in data set [2] (setting [9]) is 9.5 ± 0.1 µM. For the same compound, the “ID50 pol λ (TdT)” value in data set [7] was greater than 40 µM. For the same compound, the “ID50 pol λ (Pol)” value in data set [8] was greater than 40 µM.
For the compound `O=C(/C=C(\O)C(=O)O)/C=C/c1cc(C(=O)c2cccc(F)c2)c[nH]1` [Compound 3], the “ID50 pol β” value in data set [6] is given as greater than 40 µM. In data set [2] (setting [9]), the IC50 worked out at 0.78 ± 0.04 µM. Moreover, the “ID50 pol λ (TdT)” value in data set [7] is listed as 35 ± 1 µM. Also, the “ID50 pol λ (Pol)” value in data set [8] is greater than 40 µM.
For `O=C(/C=C(\O)C(=O)O)/C=C/c1cc(C(=O)c2ccc(F)cc2)c[nH]1` [Compound 4], in data set [6], the “ID50 pol β” value was greater than 40 µM. Moreover, the IC50 in data set [2] (setting [9]) was 0.58 ± 0.03 µM. The “ID50 pol λ (TdT)” value in data set [7] is listed as 40 ± 1 µM. The “ID50 pol λ (Pol)” value in data set [8] was greater than 40 µM.
As to `CCOC(=O)/C(O)=C/C(=O)/C=C/c1cc(C(=O)c2ccccc2)cn1Cc1ccc(Cl)cc1` [Compound 5h], the IC50 in data set [1] was greater than 100 µM; in data set [2] (setting [10]), 17.51 ± 0.12 µM; in data set [2] (setting [9]), greater than 50 µM; in data set [3], 12.4 ± 0.3 µM; in data set [4], 4.08 ± 0.4 µM. Besides, the residual polymerase activities result in data set [3] and in data set [4] was “less than 10%” each time.
Turning to `CCOC(=O)/C(O)=C/C(=O)/C=C/c1cc(C(=O)c2ccccc2)cn1Cc1ccc(OC)cc1` [Compound 5i], the IC50 in data set [1] is greater than 100 µM; in data set [2] (setting [10]), 10.5 ± 0.2 µM; in data set [2] (setting [9]) it was greater than 50 µM; in data set [3], 7.94 ± 0.1 µM; in data set [4], 4.07 ± 0.3 µM. The residual polymerase activities entry in data set [3] and in data set [4] was “less than 10%” in each case.
Take `O=C(/C=C(\O)C(=O)O)/C=C/c1cc(C(=O)c2ccccc2)cn1Cc1ccc(Cl)cc1` [Compound 6h]: the IC50 is greater than 100 µM in data set [1], 5.1 ± 0.12 µM in data set [2] (setting [10]), 20 ± 0.4 µM in data set [3] and 4.06 ± 0.2 µM in data set [4]. Also, the residual polymerase activities result in data set [3] and in data set [4] was “less than 10%” throughout.
Consider `COc1ccc(Cn2cc(C(=O)c3ccccc3)cc2/C=C/C(=O)/C=C(\O)C(=O)O)cc1` [Compound 6i], for which the IC50 in data set [1] is greater than 100 µM; in data set [2] (setting [10]), 2.7 ± 0.32 µM; in data set [2] (setting [9]) it was greater than 50 µM; in data set [3] it was 14.7 ± 0.8 µM; in data set [4], 4.06 ± 0.1 µM. The residual polymerase activities result in data set [3] and in data set [4] was “less than 10%” throughout.
On to “Ethyl 4-(1-(4-fluorobenzyl)-4-phenyl-1H-pyrrol-3-yl)-2,4-dioxobutanoate [Compound 11b]”, for which the IC50 in data set [2] (setting [9]) is greater than 50 µM. In data set [3], the “pol β Residual activity (%) Mg2+” value stood at 60.5% and the “pol β Residual activity (%) Mn2+” value was determined as 88%. For the same compound, in data set [4], the “pol λ (Pol) Residual activity (%) Mg2+” value turned out to be 70.0% and the “pol λ (Pol) Residual activity (%) Mn2+” value is reported as 94.0%.

The values above are taken from PMC12150604, “Exploring structure–activity relationships of pyrrolyl diketo acid derivatives as non-nucleoside inhibitors of terminal deoxynucleotidyl transferase enzyme” (Journal of Enzyme Inhibition and Medicinal Chemistry, 2025).
